Experiment [1] deals with K. pneumoniae (ATCC10031). Kind of experiment: 50% growth inhibitory concentration (IC50) determination assay, K. pneumoniae. It is filed as cell-based. The conditions noted are these: Klebsiella pneumoniae, read-out: IC50 (μM) K. pneumoniae ATCC10031. The procedure:
(§1) The in vitro antimicrobial activity of the compounds against E. coli (BW25113, obtained from Coli Genetic Stock Center, #7636) and K. pneumoniae (ATCC10031) was determined according to the following procedure:
(§2) The assay used a 10-points Iso-Sensitest broth medium to measure quantitatively the in vitro activity of the compounds against E. coli BW25113 and K. pneumoniae ATCC 10031.
(§3) Stock compounds in DMSO were serially two-fold diluted (range from 50 to 0.097 μM final concentration) in 384 wells microtiter plates and inoculated with 49 μL the bacterial suspension in Iso-Sensitest broth medium to have a final cell concentration of ˜5×10^5 CFU/mL in a final volume/well of 50 μL/well. Microtiter plates were incubated at 35±2° C.
(§4) Bacterial cell growth was determined with the measurement of optical density at λ=600 nm each 20 minutes over a time course of 16 h.
(§5) Growth inhibition was calculated during the logarithmic growth of the bacterial cells with determination of the concentration inhibiting 50% (IC50) of the growth.

The test system of a further experiment is E. coli (BW25113). In words: 50% growth inhibitory concentration (IC50) determination assay, E. coli. As to conditions: Escherichia coli, read-out: IC50 (μM) E. coli K12 BW25113. It is filed as cell-based. The procedure:
as §1, §2, §3, §4, §5

Setting [2] is: ATCC10031, growth inhibition, Iso-Sensitest broth, OD 600 nm over 16 h, * = detection limit.
[3] abbreviates: BW25113, growth inhibition, Iso-Sensitest broth, OD 600 nm over 16 h.

Where two headings read alike, the source gives them in different places.

As usually defined, the IC50 is the concentration needed to halve the response being measured.

`CNc1cc(F)cc2c1[nH]c1ncc(-c3cnc(OC)nc3)c(-n3ccc(C(F)(F)F)n3)c12` [Example 1.02, 6-Fluoro-3-(2-methoxypyrimidin-5-yl)-N-methyl-4-[3-(trifluoromethyl)pyrazol-1-yl]-9H-pyrido[2,3-b]indol-8-amine]: the 50% inhibitory concentration (IC50) in experiment [1] (setting [2]) was 0.108 µM; with E. coli (BW25113) (setting [3]), 1.62 µM.

Take `CNc1cc(F)cc2c1[nH]c1ncc(-c3cncc(C#N)c3)c(-n3cc(C(F)(F)F)cn3)c12` [Example 1.08, 5-[6-Fluoro-8-(methylamino)-4-[4-(trifluoromethyl)pyrazol-1-yl]-9H-pyrido[2,3-b]indol-3-yl]pyridine-3-carbonitrile]: the figures for the IC50 (in experiment [1] (setting [2]); with E. coli (BW25113) (setting [3])) were 0.102 µM and 1.25 µM, respectively.

For `CCNc1cc(F)cc2c1[nH]c1ncc(-c3cnc(NCCOC)nc3)c(-n3ccc(C(F)(F)F)n3)c12` [Example 1.13, N-Ethyl-6-fluoro-3-[2-(2-methoxyethylamino)pyrimidin-5-yl]-4-[3-(trifluoromethyl)pyrazol-1-yl]-9H-pyrido[2,3-b]indol-8-amine], the IC50 turned out to be 0.287 µM in experiment [1] (setting [2]) and 1.77 µM in the experiment with E. coli (BW25113) (setting [3]).

Turning to `CCNc1cc(F)cc2c1[nH]c1ncc(-c3cnc(OC4CCNC4)nc3)c(-n3ccc(C(F)(F)F)n3)c12` (centres unmarked) [Example 1.20, N-Ethyl-6-fluoro-3-(2-pyrrolidin-3-yloxypyrimidin-5-yl)-4-[3-(trifluoromethyl)pyrazol-1-yl]-9H-pyrido[2,3-b]indol-8-amine], the IC50 is at most 0.098 µM in experiment [1] (ATCC10031, 16 h) and 1.48 µM in the experiment on E. coli (BW25113) (BW25113, 16 h).

On to `CCNc1cc(F)cc2c1[nH]c1ncc(-c3cnc(OC4CNC4)nc3)c(-n3ccc(C(F)(F)F)n3)c12` [Example 1.23, 3-[2-(Azetidin-3-yloxy)pyrimidin-5-yl]-N-ethyl-6-fluoro-4-[3-(trifluoromethyl)pyrazol-1-yl]-9H-pyrido[2,3-b]indol-8-amine], for which the concentration for half-maximal inhibition (IC50) in experiment [1] (setting [2]) is at most 0.098 µM; in the experiment on E. coli (BW25113) (setting [3]), 1.98 µM.

Take `CCNc1cc(F)cc2c1[nH]c1ncc(-c3cnc(OCC(C)(C)N)nc3)c(-n3ccc(C(F)(F)F)n3)c12` [Example 1.30, 3-[2-(2-Amino-2-methyl-propoxy)pyrimidin-5-yl]-N-ethyl-6-fluoro-4-[3-(trifluoromethyl)pyrazol-1-yl]-9H-pyrido[2,3-b]indol-8-amine]: the IC50 was found to be 0.159 µM in experiment [1] (setting [2]) and 1.56 µM in the experiment with E. coli (BW25113) (setting [3]).

Consider `CCNc1cc(F)cc2c1[nH]c1ncc(-c3cncc(CO)c3)c(-n3ccc(C(F)(F)F)n3)c12` [Example 1.36, [5-[8-(Ethylamino)-6-fluoro-4-[3-(trifluoromethyl)pyrazol-1-yl]-9H-pyrido[2,3-b]indol-3-yl]-3-pyridyl]methanol], for which the results for the IC50 (in experiment [1] (setting [2]); with E. coli (BW25113) (setting [3])) were at most 0.098 µM and 0.928 µM, respectively.

As to `CCc1ncc(-c2cnc3[nH]c4c(NC)cc(F)cc4c3c2-n2ccc(C(F)(F)F)n2)cn1` [Example 1.47, 3-(2-Ethylpyrimidin-5-yl)-6-fluoro-N-methyl-4-[3-(trifluoromethyl)pyrazol-1-yl]-9H-pyrido[2,3-b]indol-8-amine], the half-inhibitory concentration (IC50) stood at 0.105 µM in experiment [1] (setting [2]) and 1.29 µM in the experiment on E. coli (BW25113) (setting [3]).

In the case of `CCNc1cc(F)cc2c1[nH]c1ncc(-c3cnc(N4CCNCC4)nc3)c(-n3ccc(C(F)(F)F)n3)c12` [Example 1.52, N-ethyl-6-fluoro-3-(2-piperazin-1-ylpyrimidin-5-yl)-4-[3-(trifluoromethyl)pyrazol-1-yl]-9H-pyrido[2,3-b]indol-8-amine], the half-maximal inhibitory concentration (IC50) in experiment [1] (setting [2]) stood at 0.146 µM; in the experiment on E. coli (BW25113) (setting [3]) it was 1.22 µM.

As for `CCNc1cc(F)cc2c1[nH]c1ncc(-c3cnc(O[C@@H]4CCNC4)nc3)c(-n3ccc(C(F)(F)F)n3)c12` [Example 1.55, N-ethyl-6-fluoro-3-[2-[(3R)-pyrrolidin-3-yl]oxypyrimidin-5-yl]-4-[3-(trifluoromethyl)pyrazol-1-yl]-9H-pyrido[2,3-b]indol-8-amine], the IC50 was at most 0.098 µM in experiment [1] (ATCC10031, 16 h) and 1.03 µM in the experiment with E. coli (BW25113) (BW25113, 16 h).

Source of the values: US20210309658A1, “ARYL COMPOUNDS FOR THE TREATMENT AND PROPHYLAXIS OF BACTERIAL INFECTION” (Hoffmann-La Roche Inc., priority 2018, published 2021).
